Experimental data from patent publication US7964557B2, “Inhibition of wet type age related macular degeneration (AMD) by adiponectin or acrp 30” (University of Louisville Research Foundation, Inc., priority 2005, dated 2011).

Tests used:
laser-induced CNV = assay: laser-induced mouse model of choroidal neovascularization (CNV), CNV size by confocal microscopy; format: in vivo, C57BL/6 mice; conditions: for reduction in CNV size compared to control: p<0.005; for neovascular complex in laser spots, confocal micrograph: compared to control; for reduction of CNV size compared to control mice: injected subretinally into the eye, 5 μg; for reduction of CNV size compared to control mice / decrease in CNV size compared to control mice: control PBS; for decrease in CNV size compared to control mice: day 7 after laser; for effect on CNV size compared among adiponectin peptides (words): mouse model of CNV, route not stated
Description: Animals (C57BL/6 mice) were divided into 3 groups. CNV was induced by laser photocoagulation in group 1 (n=5) with the krypton red laser (50 μm spot size; 0.05 s duration; 250 mW), as previously described (Bora et al. 2003 Proc. Natl. Acad. Sci. USA 100:2679-2685; Bora et al. 2005 J. Immunol. 174:491-497) and no APN was administered to these mice. Three laser spots were placed in each eye close to the optic nerve. In group 2 (n=5), the mice were treated, i.p., with 25 μg of rAPN, one day before laser photocoagulation and every day after laser treatment until day 6. Group 3 animals received subretinal injections on days 0, 1, and 3 in one eye, the other eye received PBS as control. All the experiments were repeated three times.
We injected 50 μg peptide NH2-LQVYGDGDHNGLYADNVN-COOH (SEQ ID NO: 1, synthesized at Peptide Biochemical Research Inc. Seattle, USA; dissolved in PBS) intraperitoneally (i.p.) to mice (n=5) as well as intravitreally (i-vit.). Six i.p. injections were given, one preceding laser treatment and five following the laser treatment. Control group was given sterile PBS. One group (n=5) was photocoagulated on day 0 and on day 1 a single 30 μg i-vit. injection was given. All the experiments were repeated three times. Mice were sacrificed following perfusion with FITC dextran on day 7 and eyes removed and fixed in formaldehyde. Choroidal-scleral flat mounts were prepared and processed for immunostaining. Laser confocal micrographs were used to measure the size of CNV by Image-Pro-Plus software (Media Cybernetics, Inc. Silver Spring, Md.).
Seven days after laser treatment, the eyes of all animals were perfused with 1 ml of PBS containing 50 mg/ml fluorescein-labeled dextran (FITC-dextran; average molecular mass, 2×10^6; Sigma-Aldrich) and the animals were sacrificed. The eyes were harvested and fixed in 10% phosphate-buffered formalin, and retinal pigment epithelium (RPE)-choroid-scleral flat mounts were prepared as previously described (Bora et al. 2003 supra; Bora et al. 2005 supra.). RPE-choroid-scleral flat mounts were stained for elastin using a mAb specific for elastin (1.0 mg/ml; 1/2000 dilution; Sigma-Aldrich) followed by a Cy3-labeled secondary Ab (1.0 mg/ml; 1/2000 dilution; Sigma-Aldrich). The incidence and the size of CNV were determined by confocal microscopy. The size of the CNV complex was graded by morphometric analysis of the images (MetaMorph Image Analysis software package; Universal Imaging) obtained from confocal microscopy.

VEGF = assay: RT-PCR of VEGF mRNA in choroids of laser-treated mice; format: in vivo, C57BL/6 mice; conditions: APN administered vs laser-treated mice without APN; FIG. 5; listed as APN
Description: Ten laser spots were placed in each eye of C57BL/6 mice as described below. Animals from each group (n=10/each time point) were sacrificed at days 1, 3, 5, and 7 post-laser treatment, RPE-choroid-scleral tissues harvested from the enucleated eyes were pooled separately for each time point and without laser treatment (control), and total RNA was prepared using SV Total RNA Isolation kit (Promega, Madison, Wis.). Equal amounts of the total RNA (0.2 μg) were used to detect the mRNA levels of GAPDH, VEGF, β-FGF and APN by RT-PCR using the reagents purchased from Applied Biosystems. The sense and antisense oligonucleotide primers were synthesized at Integrated DNA Technologies, and PCR used 30 cycles. The negative controls consisted of omission of RNA or reverse transcriptase in the reaction mixture. PCR products were analyzed on a 2% agarose gel and were examined by using the Molecular Analyst/PC program (Bio-Rad). RT-PCR was conducted using the following primers: GAPDH (forward (F), 5′-[…]-3′, SEQ ID NO; 5; reverse (R), 5′-[…]-3′, SEQ ID NO: 6); VEGF (F, 5′-GCGGGCTGCCTCGCAGTC-3′, SEQ ID NO: 7; R, 5′-[…]-3′, SEQ ID NO: 8); β-FGF (F, 5′-[…]-3′, SEQ ID NO: 9; R, 5′-[…]-3′, SEQ ID NO: 10); TGF-β2 (F, 5′-[…]-3′, SEQ ID NO: 11; R, 5′-[…]-3′, SEQ ID NO: 12); APN (F, 5′-[…]-3′, SEQ ID NO: 13; R, 5′-[…]-3′, SEQ ID NO: 14)

[1] = intraperitoneal (i.p.) injection, 25 μg rAPN or 50 μg 18 mer peptide

Molecule | reduction in CNV size compared to control (laser-induced CNV; i-vit injection, single dose a day after laser, FIG. 7B) | reduction in CNV size compared to control (laser-induced CNV; i.p. injection, 50 μg/mouse, six daily injections, FIG. 7A) | neovascular complex in laser spots, confocal micrograph (laser-induced CNV; i.p. injection) | reduction of CNV size compared to control mice (laser-induced CNV) [%] | decrease in CNV size compared to control mice (laser-induced CNV; [1]) [%] | neovascular complex in laser spots, confocal micrograph (laser-induced CNV; intravitreal injection) | decrease in CNV size compared to control mice (laser-induced CNV; intravitreal injection) | effect on CNV size compared among adiponectin peptides (words) (laser-induced CNV) | effect on CNV size compared among adiponectin peptides (words) (laser-induced CNV; listed as 18 mer synthetic peptide) | decrease in CNV size compared to control mice (laser-induced CNV; intravitreal injection, listed as APN) [%] | VEGF expression in the choroids of laser-treated mice (VEGF)
NH2-LQVYGDGDHNGLYADNVN-COOH (H-LQVYGDGDHNGLYADNVN-OH) [18 mer peptide, 18 mer synthetic peptide, amino acid residues 216-233 of mouse adiponectin globular domain] | significant reduction | significant reduction | significantly inhibited | 70 | ~80 | significantly inhibited | about 70% | as effective as the intact adiponectin protein | reduced the size of CNV similarly | – | –
rAPN: mouse recombinant adiponectin polypeptide of about 30 kDa obtained from BioVision Research Products (protein, UniProt Q60994 18-247, looked up) Adiponectin: EDDVTTTEELAPALVPPPKGTCAGWMAGIPGHPGHNGTPGRDGRDGTPGEKGEKGDAGLLGPKGETGDVGMTGAEGPRGFPGTPGRKGEPGEAAYVYRSAFSVGLETRVTVPNVPIRFTKIFYNQQNHYDGSTGKFYCNIPGLYYFSYHITVYMKDVKVSLFKKDKAVLFTYDQYQEKNVDQASGSVLLHLEVGDQVWLQVYGDGDHNGLYADNVNDSTFTGFLLYHDTN | – | – | significantly inhibited | 70 | 80 | – | about 70% | reduced the size of CNV similarly | – | 70 | inhibited VEGF expression
